In paper PMC8842743 (Journal of Alzheimer's Disease Reports, 2022):

Tests used:
[1] = target: T1, Renin recombinant human enzyme (Homo sapiens, UniProt P00797); assay: Renin FRET assay; format: biochemical
T1 sequence (P00797 67-406): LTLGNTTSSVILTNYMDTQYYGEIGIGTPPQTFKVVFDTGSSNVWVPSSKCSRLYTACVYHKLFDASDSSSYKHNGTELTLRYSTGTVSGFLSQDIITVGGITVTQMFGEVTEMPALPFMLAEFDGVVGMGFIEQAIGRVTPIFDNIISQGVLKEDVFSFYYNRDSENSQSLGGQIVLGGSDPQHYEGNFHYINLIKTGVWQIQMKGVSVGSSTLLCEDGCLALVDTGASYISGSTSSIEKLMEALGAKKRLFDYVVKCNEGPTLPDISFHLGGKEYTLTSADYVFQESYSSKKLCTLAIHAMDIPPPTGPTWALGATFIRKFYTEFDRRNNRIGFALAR

[2] = target: Porcine gastric mucosa pepsin (Sus scrofa, UniProt P00791); assay: Pepsin FRET assay; format: biochemical
[3] = system: Aβ; conditions: cited from earlier work

Porcine gastric mucosa pepsin, sequence (P00791 60-385): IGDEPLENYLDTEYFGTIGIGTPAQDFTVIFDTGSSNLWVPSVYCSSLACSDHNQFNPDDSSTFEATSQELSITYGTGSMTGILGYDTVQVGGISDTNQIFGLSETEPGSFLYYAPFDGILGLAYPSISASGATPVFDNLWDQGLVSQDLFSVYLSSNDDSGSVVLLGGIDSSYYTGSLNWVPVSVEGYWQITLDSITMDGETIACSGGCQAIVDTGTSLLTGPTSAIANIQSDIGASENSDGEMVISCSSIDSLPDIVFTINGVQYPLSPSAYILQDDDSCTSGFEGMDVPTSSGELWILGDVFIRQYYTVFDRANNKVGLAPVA

Row | IC50 [1] | IC50 [2] | SMILES | Aβ reduction explored in Phase III studies [3]
1 | 14.1 µM | 77.4 µM | NC1=N[C@@]2(c3cc(NC(=O)c4ccc(F)cn4)ccc3F)COC[C@H]2CS1 [LY2886721, reference compound] | –
2 | – | – | CN1C(=N)N[C@](C)(c2cc(NC(=O)c3ccc(F)cn3)ccc2F)CS1(=O)=O [verubecestat] | approximately 85%
